Assays:
Type in all cases: in vivo
[1] = test system: Beet Armyworm (Spodoptera exigua, LAPHEG); assay: Bioassay on Beet Armyworm (BAW), 128-well diet tray assay; conditions: 168 h, 50 μg/cm^2 on artificial diet, second instar BAW larvae, 25° C., five to seven days, average of eight wells, read-out: BAW % Control (or Mortality) rating
Protocol: (§1) Certain molecules disclosed in this document were tested against BAW and CEW using procedures described in the following examples. In the reporting of the results, the “BAW & CL Rating Table” was used (See Table Section).
Bioassays on BAW were conducted using a 128-well diet tray assay. one to five second instar BAW larvae were placed in each well (3 mL) of the diet tray that had been previously filled with 1 mL of artificial diet to which 50 μg/cm^2 of the test compound (dissolved in 50 μL of 90:10 acetone-water mixture) had been applied (to each of eight wells) and then allowed to dry. Trays were covered with a clear self-adhesive cover and held at 25° C., 14:10 light-dark for five to seven days. Percent mortality was recorded for the larvae in each well; activity in the eight wells was then averaged. The results are indicated in the table entitled “Table ABC: Biological Results” (See Table Section).

[2] = test system: Green Peach Aphid (Myzus persicae, MYZUPE); assay: Bioassay on Green Peach Aphid (GPA), foliar spray on cabbage seedlings; conditions: 72 h, 200 ppm spray on infested cabbage seedlings, graded after three days, Abbott corrected % control, read-out: GPA % Control (or Mortality) rating
Protocol: Certain molecules disclosed in this document were tested against GPA using procedures described in the following example. In the reporting of the results, the “GPA Rating Table” was used (See Table Section).
Cabbage seedlings grown in 3-inch pots, with 2-3 small (3-5 cm) true leaves, were used as test substrate. The seedlings were infested with 20-50 GPA (wingless adult and nymph stages) one day prior to chemical application. Four pots with individual seedlings were used for each treatment. Test compounds (2 mg) were dissolved in 2 mL of acetone/methanol (1:1) solvent, forming stock solutions of 1000 ppm test compound. The stock solutions were diluted 5× with 0.025% Tween 20 in water to obtain the solution at 200 ppm test compound. A hand-held aspirator-type sprayer was used for spraying a solution to both sides of […] leaves until runoff. Reference plants (solvent check) were sprayed with the diluent only containing 20% by volume of acetone/methanol (1:1) solvent. Treated plants were held in a holding room for three days at approximately 25° C. and ambient relative humidity (RH) prior to grading. Evaluation was conducted by counting the number of live aphids per plant under a microscope. Percent Control was measured by using Abbott's correction formula (W. S. Abbott, “A Method of Computing the Effectiveness of an Insecticide” J. Econ. Entomol. 18 (1925), pp. 265-267) as follows. Corrected % Control=100*(X−Y)/X where X=No. of live aphids on solvent check plants and Y=No. of live aphids on treated plants

[3] = test system: Cabbage Looper (Trichoplusia ni, TRIPNI); assay: Bioassay on Cabbage Looper (CL), 128-well diet tray assay; conditions: 168 h, 50 μg/cm^2 on artificial diet, second instar CL larvae, 25° C., five to seven days, average of eight wells, read-out: CL % Control (or Mortality) rating
Protocol: as §1
Bioassays on CL were conducted using a 128-well diet tray assay, one to five second instar CL larvae were placed in each well (3 mL) of the diet tray that had been previously filled with 1 mL of artificial diet to which 50 μg/cm^2 of the test compound (dissolved in 50 μL of 90:10 acetone-water mixture) had been applied (to each of eight wells) and then allowed to dry. Trays were covered with a clear self-adhesive cover and held at 25° C., 14:10 light-dark for five to seven days. Percent mortality was recorded for the larvae in each well; activity in the eight wells was then averaged. The results are indicated in the table entitled “Table ABC: Biological Results” (See Table Section).

| SMILES | mortality at 50 µg/cm2 [1] | mortality at 200 ppm [2] | mortality at 50 µg/cm2 [3] |
| --- | --- | --- | --- |
| FC(F)(F)Oc1ccc(-n2cnc(-c3ccc(NC4=NC(c5ccc(Cl)cc5)CO4)cc3)n2)cc1 (stereo not drawn) [Compound F3, 4-(4-Chlorophenyl)-N-(4-(1-(4-(trifluoromethoxy)phenyl)-1H-1,2,4-triazol-3-yl)phenyl)-4,5-dihydrooxazol-2-amine] | 50 to 100% | 0 to 80% | 50 to 100% |
| Cc1ccc(C2COC(Nc3ccc(-c4ncn(-c5ccc(OC(F)(F)F)cc5)n4)cc3)=N2)cc1 (stereo not drawn) [Compound F4, 4-(p-Tolyl)-N-(4-(1-(4-(trifluoromethoxy)phenyl)-1H-1,2,4-triazol-3-yl)phenyl)-4,5-dihydrooxazol-2-amine] | 0% | 0% | 50 to 100% |
| COc1ccc(C2COC(Nc3ccc(-c4ncn(-c5ccc(OC(F)(F)F)cc5)n4)cc3)=N2)cc1 (stereo not drawn) [Compound F6, 4-(4-Methoxyphenyl)-N-(4-(1-(4-(trifluoromethoxy)phenyl)-1H-1,2,4-triazol-3-yl)phenyl)-4,5-dihydrooxazol-2-amine] | 50 to 100% | 0% | 50 to 100% |
| FC(F)(F)Oc1ccc(-n2cnc(-c3ccc(NC4=NC(c5ccccc5)CO4)cc3)n2)cc1 (stereo not drawn) [Compound F7, 4-Phenyl-N-(4-(1-(4-(trifluoromethoxy)phenyl)-1H-1,2,4-triazol-3-yl)phenyl)-4,5-dihydrooxazol-2-amine] | 50 to 100% | 80 to 100% | 50 to 100% |
| Fc1ccc(C2COC(Nc3ccc(-c4ncn(-c5ccc(OC(F)(F)F)cc5)n4)cc3)=N2)cc1 (stereo not drawn) [Compound F8, 4-(4-Fluorophenyl)-N-(4-(1-(4-(trifluoromethoxy)phenyl)-1H-1,2,4-triazol-3-yl)phenyl)-4,5-dihydrooxazol-2-amine] | 50 to 100% | 0 to 80% | 50 to 100% |
| FC(F)(F)Oc1ccc(-n2cnc(-c3ccc(NC4=NC(c5ccc(Br)cc5)CO4)cc3)n2)cc1 (stereo not drawn) [Compound F9, 4-(4-Bromophenyl)-N-(4-(1-(4-(trifluoromethoxy)phenyl)-1H-1,2,4-triazol-3-yl)phenyl)-4,5-dihydrooxazol-2-amine] | 50 to 100% | 80 to 100% | 50 to 100% |
| FC(F)(F)Oc1ccc(-n2cnc(-c3ccc(NC4=NC(c5cccc(Cl)c5)CO4)cc3)n2)cc1 (stereo not drawn) [Compound F10, 4-(3-Chlorophenyl)-N-(4-(1-(4-(trifluoromethoxy)phenyl)-1H-1,2,4-triazol-3-yl)phenyl)-4,5-dihydrooxazol-2-amine] | 0% | 0% | 50 to 100% |
| COc1ccc(C2COC(Nc3ccc(-c4ncn(-c5ccc(C(F)(F)F)cc5)n4)cc3)=N2)cc1 (stereo not drawn) [Compound F12, 4-(4-Methoxyphenyl)-N-(4-(1-(4-(trifluoromethyl)phenyl)-1H-1,2,4-triazol-3-yl)phenyl)-4,5-dihydrooxazol-2-amine] | 0% | 0% | 0% |
| Cc1ccc(C2COC(Nc3ccc(-c4ncn(-c5ccc(C(F)(F)F)cc5)n4)cc3)=N2)cc1 (stereo not drawn) [Compound F13, 4-(p-Tolyl)-N-(4-(1-(4-(trifluoromethyl)phenyl)-1H-1,2,4-triazol-3-yl)phenyl)-4,5-dihydrooxazol-2-amine] | 0% | 0% | 0% |
| FC(F)(F)c1ccc(-n2cnc(-c3ccc(NC4=NC(c5ccccc5)CO4)cc3)n2)cc1 (stereo not drawn) [Compound F14, 4-Phenyl-N-(4-(1-(4-(trifluoromethyl)phenyl)-1H-1,2,4-triazol-3-yl)phenyl)-4,5-dihydrooxazol-2-amine] | 0% | 0% | 0% |
| Fc1ccc(C2COC(Nc3ccc(-c4ncn(-c5ccc(C(F)(F)F)cc5)n4)cc3)=N2)cc1 (stereo not drawn) [Compound F15, 4-(4-Fluorophenyl)-N-(4-(1-(4-(trifluoromethyl)phenyl)-1H-1,2,4-triazol-3-yl)phenyl)-4,5-dihydrooxazol-2-amine] | 50 to 100% | 0% | 50 to 100% |
| FC(F)(F)c1ccc(-n2cnc(-c3ccc(NC4=NC(c5ccc(Cl)cc5)CO4)cc3)n2)cc1 (stereo not drawn) [Compound F16, 4-(4-Chlorophenyl)-N-(4-(1-(4-(trifluoromethyl)phenyl)-1H-1,2,4-triazol-3-yl)phenyl)-4,5-dihydrooxazol-2-amine] | 50 to 100% | 80 to 100% | 50 to 100% |
| FC(F)(F)Oc1ccc(C2COC(Nc3ccc(-c4ncn(-c5ccc(C(F)(F)F)cc5)n4)cc3)=N2)cc1 (stereo not drawn) [Compound F17, 4-(4-(Trifluoromethoxy)phenyl)-N-(4-(1-(4-(trifluoromethyl)phenyl)-1H-1,2,4-triazol-3-yl)phenyl)-4,5-dihydrooxazol-2-amine] | 50 to 100% | 0% | 50 to 100% |
| FC(F)(F)c1ccc(-n2cnc(-c3ccc(NC4=NC(c5cccc(Cl)c5)CO4)cc3)n2)cc1 (stereo not drawn) [Compound F18, 4-(3-Chlorophenyl)-N-(4-(1-(4-(trifluoromethyl)phenyl)-1H-1,2,4-triazol-3-yl)phenyl)-4,5-dihydrooxazol-2-amine] | 50 to 100% | 0% | 50 to 100% |
| FC(F)(F)c1ccc(-n2cnc(-c3ccc(NC4=NC(c5ccccc5Cl)CO4)cc3)n2)cc1 (stereo not drawn) [Compound F19, 4-(2-Chlorophenyl)-N-(4-(1-(4-(trifluoromethyl)phenyl)-1H-1,2,4-triazol-3-yl)phenyl)-4,5-dihydrooxazol-2-amine] | 0% | 0% | 50 to 100% |
| COc1ccc(C2CSC(Nc3ccc(-c4ncn(-c5ccc(OC(F)(F)F)cc5)n4)cc3)=N2)cc1 (stereo not drawn) [Compound F21, 4-(4-Methoxyphenyl)-N-(4-(1-(4-(trifluoromethoxy)phenyl)-1H-1,2,4-triazol-3-yl)phenyl)-4,5-dihydrothiazol-2-amine] | 50 to 100% | 0% | 0% |
| Cc1ccc(C2CSC(Nc3ccc(-c4ncn(-c5ccc(OC(F)(F)F)cc5)n4)cc3)=N2)cc1 (stereo not drawn) [Compound F22, 4-(p-Tolyl)-N-(4-(1-(4-(trifluoromethoxy)phenyl)-1H-1,2,4-triazol-3-yl)phenyl)-4,5-dihydrothiazol-2-amine] | 0% | 0% | 0% |
| FC(F)(F)Oc1ccc(-n2cnc(-c3ccc(NC4=NC(c5ccccc5)CS4)cc3)n2)cc1 (stereo not drawn) [Compound F23, 4-Phenyl-N-(4-(1-(4-(trifluoromethoxy)phenyl)-1H-1,2,4-triazol-3-yl)phenyl)-4,5-dihydrothiazol-2-amine] | 0% | 0% | 0% |
| Fc1ccc(C2CSC(Nc3ccc(-c4ncn(-c5ccc(OC(F)(F)F)cc5)n4)cc3)=N2)cc1 (stereo not drawn) [Compound F24, 4-(4-Fluorophenyl)-N-(4-(1-(4-(trifluoromethoxy)phenyl)-1H-1,2,4-triazol-3-yl)phenyl)-4,5-dihydrothiazol-2-amine] | 0 to 50% | 0% | 0 to 50% |
| FC(F)(F)Oc1ccc(-n2cnc(-c3ccc(NC4=NC(c5ccc(Cl)cc5)CS4)cc3)n2)cc1 (stereo not drawn) [Compound F25, 4-(4-Chlorophenyl)-N-(4-(1-(4-(trifluoromethoxy)phenyl)-1H-1,2,4-triazol-3-yl)phenyl)-4,5-dihydrothiazol-2-amine] | 0% | 0% | 0% |

Reference: patent US9326516B2, “Molecules having certain pesticidal utilities, and intermediates, compositions, and processes related thereto” (Dow AgroSciences LLC, priority 2014, dated 2016)
